These are literature values, as cited in patent EP4516295A1, “PH-INDUCIBLE STRUCTURE-SWITCHING LIPID NANOVECTORS, SEMI-SYNTHETIC EXTRACELLULAR VESICLES, METHODS OF MAKING SAME AND USES THEREOF” (ETH Zurich, priority 2023, dated 2025).

SMILES strings stand for the structures.

The conditions of the series: apparent acid dissociation constant prior to incorporation in LNVs.
What is called pKa is the pH at which an ionisable group is half protonated. With `CCCCCCCCCCCOC(=O)CCCCCN(CCO)CCCCCCCC(=O)OC(CCCCCCCC)CCCCCCCC` [SM-102], the pKa is 6.68.
Regarding `CCCC/C=C\C/C=C\CCCCCCCCCC1(CCCCCCCC/C=C\C/C=C\CCCCC)OCC(CCCN(C)C)O1` (stereo not drawn) [DLin-KC3-DMA, N,N-dimethyl-3-(2-((10Z,13Z)-octadeca-10,13-dien-1-yl)-2-((9Z,12Z)-octadeca-9,12-dien-1-yl)-1,3-dioxolan-4-yl)propan-1-amine], the pKa is reported as 7.2.
For `CCCCC/C=C\C/C=C\CCCCCCCCC(CCCCCCCC/C=C\C/C=C\CCCCC)OC(=O)CCCN(C)C` [DLin-MC3-DMA, 4-(dimethylamino)-butanoic acid, (10Z,13Z)-1-(9Z,12Z)-9,12-octadecadien-1-yl-10,13-nonadecadien-1-yl ester], the pKa is 6.44.
As for `CCCC/C=C\C/C=C\CCCCCCCCCC1(CCCCCCCC/C=C\C/C=C\CCCCC)OCC(CN(C)C)O1` [D-Lin-K-DMA, N,N-dimethyl-1-(2-((10Z,13Z)-octadeca-10,13-dien-1-yl)-2-((9Z,12Z)-octadeca-9,12-dien-1-yl)-1,3-dioxolan-4 yl)methanamine], the pKa is listed as 5.9.
In the case of `CCCCC/C=C\C/C=C\CCCCCCCCOCC(CN(C)C)OCCCCCCCC/C=C\C/C=C\CCCCC` (stereo not drawn) [DLin-DMA, 1,2-dilinoleyloxy-N,N-dimethyl-3-aminopropane], the pKa is 6.8.
Take `CCCCCCCCC(CCCCCC)C(=O)OCCCCCCN(CCCCO)CCCCCCOC(=O)C(CCCCCC)CCCCCCCC` (stereo not drawn) [ALC-0315]: the pKa is reported as 6.09.
For `CCCC/C=C\C/C=C\CCCCCCCCCC1(CCCCCCCC/C=C\C/C=C\CCCCC)OCC(CCCCN(C)C)O1` (stereo not drawn) [DLin-KC4-DMA, N,N-dimethyl-4-(2-((10Z,13Z)-octadeca-10,13-dien-1-yl)-2-((9Z,12Z)-octadeca-9,12-dien-1-yl)-1,3-dioxolan-4-yl)butan-1-amine], the pKa was 7.3.
Turning to `CCCC/C=C\C/C=C\CCCCCCCCCC1(CCCCCCCC/C=C\C/C=C\CCCCC)OCC(CCN(C)C)O1` (stereo not drawn) [DLin-KC2-DMA, N,N-dimethyl-2-(2-((10Z,13Z)-octadeca-10,13-dien-1-yl)-2-((9Z,12Z)-octadeca-9,12-dien-1-yl)-1,3-dioxolan-4-yl)ethan-1-amine], the pKa is reported as 6.68.
In the case of `CCCCCC/C=C\COC(=O)CCCCCCCC(CCCCCCCC(=O)OC/C=C\CCCCCC)OC(=O)CCCN(C)C` [L319], the pKa is reported as 6.38.
